Assay results as given in US11878967B2, “Crystalline forms of 1-(4-{[6-amino-5-(4-phenoxy-phenyl)-pyrimidin-4-ylamino]-methyl}-4-fluoro-piperidin-1-yl)-propenone, salt forms thereof, and processes to obtain” (Merck Patent GmbH, priority 2018, dated 2024).
Converted amounts (≈) assume the structure as drawn. Structures can show the parent of a compound that is named as a salt. Where two headings read alike, the source gives them in different places.

Experiments:
Assay type in all cases: physicochemical
[1] = Thermodynamic solubility (24 h) at 37° C. of free base forms; conditions: for solubility thermodynamic at 24 h: 37 °C, thermodynamic from solid
Description: Approximately 10-20 mg of 1-(4-{[6-Amino-5-(4-phenoxy-phenyl)-pyrimidin-4-ylamino]-methyl}-4-fluoro-piperidin-1-yl)-propenone were weighed into a 4 mL glass vial. 1 mL of FaSSIF medium (pH 6.5) or USP Phosphate buffer pH 7.4 was added and the suspension was shaken for 24 h at 450 rpm at 37° C. After 1 h, 6 h and after 24 h the vials were checked for presence of undissolved compound and the pH was measured. If necessary, the pH was adjusted after 1 h and 6 h. The solid liquid separation was carried out using 1 mL syringe and 0.2 μm syringe filter. Clear filtrate was analysed by HPLC after suitable dilution to measure the amount of API dissolved.

[2] = Mini-dissolution in FaSSIF medium pH 6.5 at 37° C.; conditions: for Dissolution levels in FaSSIF pH 6.5: 37° C.; for Dissolution level (2 h) in FaSSIF, factor higher than A1: compared to crystalline neat form A1
Description: Approximately 10-20 mg of 1-(4-{[6-Amino-5-(4-phenoxy-phenyl)-pyrimidin-4-ylamino]-methyl}-4-fluoro-piperidin-1-yl)-propenone were weighed into glass vials. 7 mL of FaSSIF medium (pH 6.5, prewarmed to 37° C.) were added and the suspension was shaken at 450 rpm at 37° C. After 30 min, 60 min and 120 min, 1 mL suspension was withdrawn and filtered through a 0.2 μm syringe filter. Clear filtrate was analysed by HPLC after suitable dilution to measure the amount of API dissolved.

[3] = Water Vapour Sorption isotherm (25° C.), DVS system from SMS
Description: DSC scan of form A1 was acquired on a Mettler-Toledo DSC 1 with a heating rate of 5 K/min, using nitrogen purge gas at 50 mL/min. TGA scan of form A1 was acquired on a Mettler-Toledo TGA 851 with a heating rate of 5 K/min, using nitrogen purge gas at 50 mL/min. […] Eur. Criteria (section 5.11.). Water Vapour Sorption isotherm was acquired on a DVS-Intrinsic system from SMS. […] Dissolution level of form A1 in Fasted-State Simulated Intestinal Fluid [FaSSIF, pH 6.5] at 37° C. was determined to be approx. 17 μg/mL after 2 h (see example 7). […]
All forms were characterized according to standard methods which are found in e.g. Rolf Hilfiker, ‘Polymorphism in the Pharmaceutical Industry’, Wiley-VCH. Weinheim 2006 (Chapter 6: X-Ray Diffraction, Chapter 6: Vibrational Spectroscopy, Chapter 3: Thermal Analysis, Chapter 9: Water Vapour Sorption, and references therein); and H. G. Brittain, ‘Polymorphism in Pharmaceutical Solids, Vol. 95, Marcel Dekker Inc., New York 1999 (Chapter 6 and references therein).

[4] = relative humidity range 0-80% rh
[5] = relative humidity range 90-98% rh

Compound | Dissolution levels in FaSSIF pH 6.5 ([2]; 30 min) [μg/mL] | Dissolution levels in FaSSIF pH 6.5 ([2]; 60 min) [μg/mL] | Hygroscopicity classification acc. to Ph. Eur. criteria (section 5.11.) [3] | Water uptake levels [3, 4] [% m/m] | Water uptake levels [3, 5] [% m/m] | other results
C=CC(=O)N1CCC(F)(CNc2ncnc(N)c2-c2ccc(Oc3ccccc3)cc2)CC1 [Free base form A2, 1-(4-{[6-Amino-5-(4-phenoxy-phenyl)-pyrimidin-4-ylamino]-methyl}-4-fluoro-piperidin-1-yl)-propenone] | 7 | 8 | slightly hygroscopic | ≤ 1 | ≤ 2 | Thermodynamic solubility FaSSIF pH 6.5 ([1]; Fasted-State Simulated Intestinal Fluid pH 6.5): 10 μg/mL; Thermodynamic solubility FaSSIF pH 6.5 ([1]; Fasted-State Simulated Intestinal Fluid pH 6.5, listed as form A2): approx. 10 μg/mL; Thermodynamic solubility PBS buffer 7.4 ([1]; USP Phosphate buffer pH 7.4): 2 µg/mL; Thermodynamic solubility PBS buffer 7.4 ([1]; USP Phosphate buffer pH 7.4, listed as form A2): approx. 2 μg/mL; Dissolution levels in FaSSIF pH 6.5 ([2]; 120 min (2 h)): 8 μg/mL; Dissolution levels in FaSSIF pH 6.5 ([2]; 120 min (2 h), listed as form A2): approx. 8 μg/mL
C=CC(=O)N1CCC(F)(CNc2ncnc(N)c2-c2ccc(Oc3ccccc3)cc2)CC1 [HBr-NF1, 1-(4-{[6-Amino-5-(4-phenoxy-phenyl)-pyrimidin-4-ylamino]-methyl}-4-fluoro-piperidin-1-yl)-propenone] | 23 | 27 | slightly hygroscopic | ≤ 1 | ≤ 5 | Dissolution level (2 h) in FaSSIF, factor higher than A1 [2]: ~3
C=CC(=O)N1CCC(F)(CNc2ncnc(N)c2-c2ccc(Oc3ccccc3)cc2)CC1 [Oxalate-NF1, 1-(4-{[6-Amino-5-(4-phenoxy-phenyl)-pyrimidin-4-ylamino]-methyl}-4-fluoro-piperidin-1-yl)-propenone] | 22 | 39 | slightly hygroscopic | ≤ 1 | ≤ 5 | Dissolution level (2 h) in FaSSIF, factor higher than A1 ([2]; listed as Oxalate salt form NF1): ~4
C=CC(=O)N1CCC(F)(CNc2ncnc(N)c2-c2ccc(Oc3ccccc3)cc2)CC1 [HCl-NF1, 1-(4-{[6-Amino-5-(4-phenoxy-phenyl)-pyrimidin-4-ylamino]-methyl}-4-fluoro-piperidin-1-yl)-propenone] | 55 | 43 | slightly hygroscopic | ≤ 1 | ≤ 5 | Dissolution level (2 h) in FaSSIF, factor higher than A1 [2]: ~4
C=CC(=O)N1CCC(F)(CNc2ncnc(N)c2-c2ccc(Oc3ccccc3)cc2)CC1 [Mesylate-NF1, 1-(4-{[6-Amino-5-(4-phenoxy-phenyl)-pyrimidin-4-ylamino]-methyl}-4-fluoro-piperidin-1-yl)-propenone] | – | – | slightly hygroscopic | ≤ 1 | ≤ 5 | –
C=CC(=O)N1CCC(F)(CNc2ncnc(N)c2-c2ccc(Oc3ccccc3)cc2)CC1 [Maleate-NF1, 1-(4-{[6-Amino-5-(4-phenoxy-phenyl)-pyrimidin-4-ylamino]-methyl}-4-fluoro-piperidin-1-yl)-propenone] | – | – | slightly hygroscopic | ≤ 1 | ≤ 5 | –
C=CC(=O)N1CCC(F)(CNc2ncnc(N)c2-c2ccc(Oc3ccccc3)cc2)CC1 [Fumarate-NF1, 1-(4-{[6-Amino-5-(4-phenoxy-phenyl)-pyrimidin-4-ylamino]-methyl}-4-fluoro-piperidin-1-yl)-propenone] | 14 | 18 | slightly hygroscopic | ≤ 1 | ≥ 5 | Dissolution level (2 h) in FaSSIF, factor higher than A1 ([2]; listed as Fumarate salt form NF1): ~2
C=CC(=O)N1CCC(F)(CNc2ncnc(N)c2-c2ccc(Oc3ccccc3)cc2)CC1 [HBr-NF2, 1-(4-{[6-Amino-5-(4-phenoxy-phenyl)-pyrimidin-4-ylamino]-methyl}-4-fluoro-piperidin-1-yl)-propenone] | – | – | slightly hygroscopic | ≤ 1 | ≥ 5 | –
C=CC(=O)N1CCC(F)(CNc2ncnc(N)c2-c2ccc(Oc3ccccc3)cc2)CC1 [Free base form A1, 1-(4-{[6-Amino-5-(4-phenoxy-phenyl)-pyrimidin-4-ylamino]-methyl}-4-fluoro-piperidin-1-yl)-propenone] | 16 | 17 | slightly hygroscopic | ≤ 1 | ≤ 2 | solubility thermodynamic at 24 h ([1]; FaSSIF (Fasted-State Simulated Intestinal Fluid), pH 6.5, fassif, Fasted-State Simulated Intestinal Fluid pH 6.5, read-out: Thermodynamic solubility FaSSIF pH 6.5): ~17 µg/mL (≈ 38 µM); solubility thermodynamic at 24 h ([1]; USP Phosphate buffer, pH 7.4, aqueous buffer, USP Phosphate buffer pH 7.4, read-out: Thermodynamic solubility PBS buffer 7.4): ~1 µg/mL (≈ 2.23 µM); Dissolution levels in FaSSIF pH 6.5 ([2]; 120 min (2 h)): 17 μg/mL; Dissolution levels in FaSSIF pH 6.5 ([2]; 120 min (2 h), listed as form A1): approx. 17 μg/mL
